The source made the active and inactive calls.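 How the source made its calls: active means cell-killing curve, signal falling, whose fitted AC50 is at most twice the top tested dose; inconclusive means flat fit with a moderate signal drop, or a poor fit; inactive means the rest.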
Test system: not listed separately
Test: ATP-based viability loss in HEK293T cells – cell-based, CellTiter-Glo luminescence, dry powder samples, set 14, cytotoxicity control, dose response (AID 743442)
Details: HEK293T viability, ATP luminescence (CellTiter-Glo), 72 h; at 12 µM (top of the series)
With `CCN1CCCC1CNC(=O)CSc1c2c(nc3ccc(Cl)cc13)CCCC2` (stereo not given) the activity change, negative = cytotoxicity was -4.32% (inactive).

Same assay, conditions: HEK293T viability, ATP luminescence (CellTiter-Glo), 72 h; at 26 µM (top of the series)
For `O=C(COc1ccc(C(=O)N2CCN(C(=O)C3CC3)CC2)cc1)Nc1cccc(C(F)(F)F)c1`, the activity change, negative = cytotoxicity was -7.18% (inactive). In the case of `COc1cc(C(=O)NCCCN(C)C)ccc1OCC(=O)Nc1cccc(C(F)(F)F)c1`, the activity change, negative = cytotoxicity was -18.3% (inactive). For `O=C(CSc1c2c(nc3ccc(Cl)cc13)CCCC2)NCc1ccccn1`, the activity change, negative = cytotoxicity was -4.85% (inactive). For `O=C(CSc1c2c(nc3ccc(Cl)cc13)CCCC2)NCc1ccc2c(c1)OCO2`, the activity change, negative = cytotoxicity was 0.001% (inactive). For `O=C(COc1ccc(C(=O)N2CCC2)cc1)Nc1cccc(C(F)(F)F)c1`, the activity change, negative = cytotoxicity was -6.82% (inactive). For `CCCNC(=O)CSc1c2c(nc3ccc(Cl)cc13)CCCC2`, the activity change, negative = cytotoxicity was -1.94% (inactive). In the case of `O=C(CSc1cccc2cccnc12)NCc1ccco1`, the activity change, negative = cytotoxicity was -4.54% (inactive). With `O=C(O)CSc1c2c(nc3cc(C(=O)NCc4cccs4)ccc13)CCCC2` the activity change, negative = cytotoxicity was -5.37% (inactive). For `O=C(CSc1c2c(nc3ccc(Cl)cc13)CCCC2)NC1CC1`, the activity change, negative = cytotoxicity was -2.74% (inactive). For `CN(CCNC(=O)CSc1c2c(nc3ccc(Cl)cc13)CCCC2)Cc1ccccc1`, the activity change, negative = cytotoxicity was -3.21% (inactive). For `COCCN(Cc1ccco1)C(=O)CSc1c2c(nc3cc(Cl)ccc13)CCCC2`, the activity change, negative = cytotoxicity was -8.9% (inactive). With `COc1ccc(N(Cc2cccs2)C(=O)COc2ccccc2C(=O)Nc2ccccc2)cc1` the activity change, negative = cytotoxicity was -7.68% (inactive). With `NC(=O)C1CCN(C(=O)c2ccc(OCC(=O)Nc3cccc(C(F)(F)F)c3)cc2)CC1` the activity change, negative = cytotoxicity was -5.23% (inactive). In the case of `CC1(C)CC(NC(=O)c2ccc(OCC(=O)Nc3cccc(C(F)(F)F)c3)cc2)CC(C)(C)N1`, the activity change, negative = cytotoxicity was -24.7% (inactive). In the case of `Cn1cc(SCC(=O)NCc2ccco2)c2ccccc21`, the activity change, negative = cytotoxicity was -10.8% (inactive). In the case of `CCOC(=O)N1CCC(NC(=O)CSc2c3c(nc4ccc(Cl)cc24)CCCC3)CC1`, the activity change, negative = cytotoxicity was -0.517% (inactive). For `CCOc1ccc(NC(=O)COc2ccc(C(=O)N3CCC(C(N)=O)CC3)cc2OC)cc1`, the activity change, negative = cytotoxicity was -5.36% (inactive). For `O=C(CSc1c2c(nc3cc(Cl)ccc13)CCCC2)N(Cc1ccco1)C1CCCC1`, the activity change, negative = cytotoxicity was -4.09% (inactive). For `O=C(CSc1c2c(nc3ccc(Cl)cc13)CCCC2)N1CCC(N2CCCCC2)CC1`, the activity change, negative = cytotoxicity was -3.26% (inactive). In the case of `O=C(CSc1c2c(nc3ccc(Cl)cc13)CCCC2)Nc1ccccc1`, the activity change, negative = cytotoxicity was -10.7% (inactive). For `COc1ccc(NC(=O)CSc2c3c(nc4ccc(Cl)cc24)CCCC3)cc1`, the activity change, negative = cytotoxicity was -8.96% (inactive). For `O=C(CSc1c2c(nc3ccc(Cl)cc13)CCCC2)NCC1CCCO1` (stereo not given), the activity change, negative = cytotoxicity was -12.2% (inactive). With `CN(CCOc1ccccc1)C(=O)c1ccc(OCC(=O)Nc2cccc(C(F)(F)F)c2)cc1` the activity change, negative = cytotoxicity was -0.662% (inactive). For `O=C(COc1ccc(C(=O)NCC2CCCO2)cc1)Nc1cccc(C(F)(F)F)c1` (stereo not given), the activity change, negative = cytotoxicity was -6.65% (inactive). For `Cc1ccc(CNC(=O)CSc2c3c(nc4ccc(Cl)cc24)CCCC3)o1`, the activity change, negative = cytotoxicity was -8.3% (inactive). With `O=C(CSc1c2c(nc3ccc(Cl)cc13)CCCC2)N1CCNC1=O` the activity change, negative = cytotoxicity was -2.06% (inactive). With `O=C(CSc1c2c(nc3ccc(Cl)cc13)CCCC2)NCc1ccc(F)cc1` the activity change, negative = cytotoxicity was -14.3% (inactive). For `COc1ccc(OCCNC(=O)c2ccccc2OCC(=O)Nc2ccc(NC(C)=O)cc2)cc1`, the activity change, negative = cytotoxicity was -1.7% (inactive). For `Cc1cccc(CCNC(=O)CSc2c3c(nc4ccc(Cl)cc24)CCCC3)c1`, the activity change, negative = cytotoxicity was -5.98% (inactive). With `O=C(CSc1c2c(nc3ccc(Cl)cc13)CCCC2)NCCCc1ccccc1` the activity change, negative = cytotoxicity was -6.44% (inactive). For `CCN(CC)C(=O)CSc1c2c(nc3ccc(Cl)cc13)CCCC2`, the activity change, negative = cytotoxicity was 0.809% (inactive). In the case of `COC(=O)CCCN(C)C(=O)c1ccc(OCC(=O)Nc2cccc(OC)c2)cc1`, the activity change, negative = cytotoxicity was -4.85% (inactive). With `Cc1ccc(CNC(=O)CSc2c3c(nc4cc(Cl)ccc24)CCCC3)o1` the activity change, negative = cytotoxicity was -11.4% (inactive). In the case of `O=C(COc1ccccc1C(=O)NCc1ccccc1)Nc1ccccc1`, the activity change, negative = cytotoxicity was -5.85% (inactive). In the case of `CN(C(=O)COc1ccccc1C(N)=O)c1ccccc1`, the activity change, negative = cytotoxicity was -5.5% (inactive). With `CCOC(=O)C1CCN(C(=O)c2ccc(OCC(=O)Nc3ccc(OCC)cc3)c(OC)c2)CC1` the activity change, negative = cytotoxicity was -2.45% (inactive). In the case of `O=C(CSc1c2c(nc3ccc(Cl)cc13)CCCC2)N1CCCCC1`, the activity change, negative = cytotoxicity was -5.3% (inactive). For `O=C(CSc1c2c(nc3ccc(Cl)cc13)CCCC2)NCc1cccnc1`, the activity change, negative = cytotoxicity was -3.63% (inactive). With `COc1ccc(CNC(=O)CSc2c3c(nc4ccc(Cl)cc24)CCCC3)cc1` the activity change, negative = cytotoxicity was -6.81% (inactive). With `O=C(CSc1c2c(nc3ccc(Cl)cc13)CCCC2)N1CCOCC1` the activity change, negative = cytotoxicity was -5.19% (inactive). With `CC(Sc1c2c(nc3ccc(Cl)cc13)CCCC2)C(=O)NCc1ccco1` (stereo not given) the activity change, negative = cytotoxicity was -3.71% (inactive). In the case of `CCCCOc1ccc(NC(=O)COc2ccccc2C(=O)NCCOc2ccccc2)cc1`, the activity change, negative = cytotoxicity was -30.8% (inactive). With `CCOC(=O)C1CCN(C(=O)c2ccc(OCC(=O)N3CCOCC3)c(OC)c2)CC1` the activity change, negative = cytotoxicity was -7.89% (inactive). In the case of `Cc1cccc(NC(=O)CSc2c3c(nc4ccc(Cl)cc24)CCCC3)n1`, the activity change, negative = cytotoxicity was -9.51% (inactive). In the case of `Cc1ccc2nc(Cl)cc(SCC(=O)NCc3ccco3)c2c1`, the activity change, negative = cytotoxicity was -11.1% (inactive). With `O=C(CSc1c2c(nc3ccc(Cl)cc13)CCCC2)NCCN1CCN(Cc2ccccc2)CC1` the activity change, negative = cytotoxicity was -10.3% (inactive). In the case of `Cc1ccc(CNC(=O)CSc2c3c(nc4ccc(Cl)cc24)CCCC3)cc1`, the activity change, negative = cytotoxicity was -7.44% (inactive). In the case of `O=C(COc1ccccc1C(=O)NCCOc1ccc(Cl)cc1)Nc1cccc(Cl)c1`, the activity change, negative = cytotoxicity was -30.7% (inactive). With `O=C(CSc1c2c(nc3ccc(Cl)cc13)CCCC2)NC1CCCC1` the activity change, negative = cytotoxicity was -7.43% (inactive). In the case of `O=C(CSc1c2c(nc3ccccc13)CCCC2)NCc1ccco1`, the activity change, negative = cytotoxicity was -6.44% (inactive). With `Cc1ccc(NC(=O)COc2ccccc2C(=O)NCCN(C)C)cc1` the activity change, negative = cytotoxicity was -1.02% (inactive). For `CN(C(=O)COc1ccc(Cl)cc1C(N)=O)c1ccccc1`, the activity change, negative = cytotoxicity was 1.16% (inactive). In the case of `O=C(CSc1c2c(nc3ccc(Cl)cc13)CCCC2)NCc1ccco1`, the activity change, negative = cytotoxicity was -6.1% (inactive). With `COCCNC(=O)CSc1c2c(nc3ccc(Cl)cc13)CCCC2` the activity change, negative = cytotoxicity was -7.42% (inactive). In the case of `O=C(CSc1ccc2ccccc2n1)NCc1ccco1`, the activity change, negative = cytotoxicity was -3.39% (inactive). For `O=C(CSc1c2c(nc3ccc(Cl)cc13)CCCC2)NCC1(c2ccccc2)CCCC1`, the activity change, negative = cytotoxicity was -8.09% (inactive). With `O=C(CSc1c2c(nc3ccc(Cl)cc13)CCCC2)NC1CCN(Cc2ccccc2)CC1` the activity change, negative = cytotoxicity was -3.75% (inactive). With `O=C(CSc1c2c(nc3ccc(Cl)cc13)CCCC2)NCCN1CCOCC1` the activity change, negative = cytotoxicity was -9.3% (inactive). For `O=C(CSc1c2c(nc3ccc(Cl)cc13)CCCC2)NCc1cccs1`, the activity change, negative = cytotoxicity was -5.31% (inactive). In the case of `Cn1c(=O)cc(SCC(=O)NCc2ccco2)c2ccccc21`, the activity change, negative = cytotoxicity was 0.641% (inactive). With `CN(C(=O)COc1ccccc1C(=O)Nc1ccccc1)c1ccccc1` the activity change, negative = cytotoxicity was -12.4% (inactive). For `CN(C)c1ccc(NC(=O)COc2ccccc2C(=O)N2CCOCC2)cc1`, the activity change, negative = cytotoxicity was -0.871% (inactive). With `CC(C)NC(=O)CSc1c2c(nc3ccc(Cl)cc13)CCCC2` the activity change, negative = cytotoxicity was -3.4% (inactive).

Test system: HEK293T viability, ATP luminescence (CellTiter-Glo), 72 h
Test: as above
Details: not given
With `CN(C(=O)COc1ccccc1C(=O)NCCc1ccccc1)c1ccccc1` the AC50 was > 52 µM (inactive). For `O=C(COc1ccc(C(=O)NC2CCCCC2)cc1)Nc1cccc(C(F)(F)F)c1`, the AC50 was > 52 µM (inactive). With `O=C(CSc1c2c(nc3ccc(Cl)cc13)CCCC2)N1CCN(Cc2ccccc2)CC1` the AC50 was > 52 µM (inactive). In the case of `CCN(CC)CCCNC(=O)c1ccc(OCC(=O)Nc2ccccc2C(F)(F)F)c(OC)c1`, the AC50 was > 52 µM (inactive). With `COc1cc(CNCCCN2CCOCC2)ccc1OCC(=O)Nc1cccc(C(F)(F)F)c1` the AC50 was > 52 µM (inactive). With `O=C(CSc1c2c(nc3ccc(Cl)cc13)CCCC2)Nc1ccc(Cl)cc1` the AC50 was > 52 µM (inactive).

Reference: PubChem BioAssay AID743442 (Broad Institute, 2014)
